According to patent US20240368104A1, “Novel Dialkoxynaphtho[2,3-C]Furan-1(3H)-One Derivatives and Pharmaceutical Composition For Preventing or Treating Respiratory Disease or SARS-COV-2 Infection Disease, Comprising Same” (priority 2021, published 2024):
Counter-ions that a name gives are not always drawn. Like-named read-outs stand apart in the source and are kept apart here.

Tests used:
SARS-COV-2 = assay: microbe, parasite or virus in culture; type: cell-based; set-up: SI (Selectivity Index, CC50/IC50): unit not given here; conditions: for SI (Selectivity Index, CC50/IC50): SARS-COV-2, values >50 assumed to be 50; for IC50: read-out: SARS-COV-2 inhibition (IC50)
in vitro = conditions: African green monkey
[1] = Severe acute respiratory syndrome coronavirus 2, Vero cells, 24 hours infection
[2] = Severe acute respiratory syndrome coronavirus 2, Vero, 24 h

## COc1cc2c(OC)c3c(c(-c4ccc(N5CCC6(CC5)OCCO6)nc4)c2cc1OC)COC3=O [Example 260, 4-(6-(1,4-dioxa-8-azaspiro[4.5]decan-8-yl)pyridin-3-yl)-6,7,9-trimethoxynaphtho[2,3-c]furan-1(3H)-one]
SARS-COV-2
  SI (Selectivity Index, CC50/IC50): 1.00
SARS-COV-2; [1]
  IC50: > 50 µM
In vitro
  CC50: > 50 µM

## CNc1ccc(-c2c3c(cc4cc(OC)c(OC)cc24)COC3=O)cc1 [Example 246, 6,7-dimethoxy-9-(4-(methylamino)phenyl)naphtho[2,3-c]furan-1(3H)-one]
SARS-COV-2
  SI (Selectivity Index, CC50/IC50): 15.18
SARS-COV-2; [1]
  IC50: 3.29 µM
In vitro
  CC50: > 50 µM

## COc1cc2cc3c(c(-c4ccc(N(C)Cc5cccs5)nc4)c2cc1OC)C(=O)OC3 [Example 198, 6,7-dimethoxy-9-(6-(methyl(thiophen-2-ylmethyl)amino)pyridin-3-yl)naphtho[2,3-c]furan-1(3H)-one]
SARS-COV-2
  SI (Selectivity Index, CC50/IC50): 48.47
SARS-COV-2; [1]
  IC50: 1.03 µM
In vitro
  CC50: > 50 µM

## COc1cc2cc3c(c(-c4cc5c(cc4OC)OCO5)c2cc1OC)C(=O)OC3 [Example 88, 6,7-dimethoxy-9-(6-methoxybenzo[d][1,3]dioxol-5-yl)naphtho[2,3-c]furan-1(3H)-one]
SARS-COV-2
  SI (Selectivity Index, CC50/IC50): 3.00
SARS-COV-2; [1]
  IC50: 16.6 µM
In vitro
  CC50: > 50 µM

## COc1cc2cc3c(c(-c4cnc(N5CCc6ccccc6[C@@H]5c5ccccc5)nc4)c2cc1OC)C(=O)OC3 [Example 151, (S)-6,7-dimethoxy-9-(2-(1-phenyl-3,4-dihydroisoquinolin-2 (1H)-yl)pyrimidin-5-yl)naphtho[2,3-c]furan-1(3H)-one]
SARS-COV-2
  SI (Selectivity Index, CC50/IC50): 1.0
SARS-COV-2; [1]
  IC50: > 50 µM
In vitro
  CC50: > 50 µM

## COc1cc2cc3c(c(-c4cc5c(cc4OP(=O)(NC(C)C)c4ccccc4)OCO5)c2cc1OC)C(=O)OC3 (stereo not drawn) [Example 281, 6-(6,7-dimethoxy-3-oxo-1,3-dihydronaphtho[2,3-c]furan-4-yl)benzo[d][1,3]dioxol-5-yl N-isopropyl-P-phenylphosphoramidate]
SARS-COV-2
  SI (Selectivity Index, CC50/IC50): 3.45
SARS-COV-2; [2]
  IC50: 14.5 µM
In vitro
  CC50: > 50 µM

## COc1cc2cc3c(c(-c4ccc(C(=O)C(F)(F)F)cc4)c2cc1OC)C(=O)OC3 [Example 210, 6,7-dimethoxy-9-(4-(2,2,2-trifluoroacetyl)phenyl)naphtho[2,3-c]furan-1(3H)-one]
SARS-COV-2
  SI (Selectivity Index, CC50/IC50): 4.91
SARS-COV-2; [2]
  IC50: 10.2 µM
In vitro
  CC50: > 50 µM

## COC(=O)CN(C)c1ncc(-c2c3c(cc4cc(OC)c(OC)cc24)COC3=O)cn1.Cl [Example 90, methyl N-(5-(6,7-dimethoxy-3-oxo-1,3-dihydronaphtho[2,3-c]furan-4-yl)pyrimidin-2-yl)-N-methyl glycinate hydrochloride]
SARS-COV-2
  SI (Selectivity Index, CC50/IC50): 16.96
SARS-COV-2; [2]
  IC50: 2.95 µM
In vitro
  CC50: > 50 µM

## CCN(C)c1ncc(-c2c3c(cc4cc(OC)c(OC)cc24)COC3=O)cn1 [Example 106, 9-(2-(ethyl(methyl)amino)pyrimidin-5-yl)-6,7-dimethoxynaphtho[2,3-c]furan-1(3H)-one hydrochloride]
SARS-COV-2
  SI (Selectivity Index, CC50/IC50): 297.58
SARS-COV-2; [2]
  IC50: 0.17 µM
In vitro
  CC50: > 50 µM

## CCN(CC)c1ccc(-c2c3c(cc4cc(OC)c(OC)cc24)COC3=O)cn1 [Example 160, 9-(6-(diethylamino)pyridin-3-yl)-6,7-dimethoxynaphtho[2,3-c]furan-1(3H)-one]
SARS-COV-2
  SI (Selectivity Index, CC50/IC50): 60.45
SARS-COV-2; [1]
  IC50: 0.83 µM
In vitro
  CC50: > 50 µM

## COc1cc2cc3c(c(-c4ccc(N(C)c5nnc(C)s5)nc4)c2cc1OC)C(=O)OC3 [Example 214, 6,7-dimethoxy-9-(6-(methyl(5-methyl-1,3,4-thiadiazol-2-yl)amino)pyridin-3-yl)naphtho[2,3-c]furan-1(3H)-one]
SARS-COV-2
  SI (Selectivity Index, CC50/IC50): 1.00
SARS-COV-2; [1]
  IC50: > 50 µM
In vitro
  CC50: > 50 µM

## COc1cc2cc3c(c(-c4ccnc5ccc(F)cc45)c2cc1OC)C(=O)OC3 [Example 148, 9-(6-fluoroquinolin-4-yl)-6,7-dimethoxynaphtho[2,3-c]furan-1(3H)-one]
SARS-COV-2
  SI (Selectivity Index, CC50/IC50): 1.0
SARS-COV-2; [1]
  IC50: > 50 µM
In vitro
  CC50: > 50 µM
